{"source": "patent US10357577B2", "about": "“Bacterial nitroreductase enzymes and methods relating thereto” (AUCKLAND UNISERVICES LIMITED, priority 2010, dated 2019)", "key": {"[1]": {"system": "HCT-116 cells stably expressing E. coli NfsB", "experiment": "Flow cytometry / fluorescent imaging of EF5 retention in vitro", "format": "cell-based, human", "description": "(§1) FIG. 11 illustrates the results of flow cytometry analysis and fluorescent imaging of stably-expressing E. coli NTR cells after in vitro EF5 exposure. 1×10^6 cells were seeded into a 6-well plate and incubated with 20 μM EF5 for 2 hrs at 37° C. Cells were fixed and stained, then analysed by flow cytometry and imaged using a Nikon2000 fluorescent microscope.\n(§2) FIG. 13 illustrates the results of flow cytometry analysis of HCT-116 cells stably expressing E. coli NfsA and NfsB after in vitro dose-response to EF5 exposure. 1×10^6 cells were incubated with varying concentrations of EF5 in oxic conditions. Samples were fixed and stained with EF5 antibody Alexa 488 ELK3.51 at 100 μg/ml. Samples were then analysed on a Becton Dickinson FACscan flow cytometer. Values are mean±SEM of two independent experiments. Representative histograms at multiple EF5 dose levels.\n(§3) In vitro: 1×10^6 cells were drug treated (EF5 or PIMO) for 1-2 hrs, harvested by trypsinisation, fixed with 4% buffered PFA (pH 7.4, 1 hr). In vivo: Tumour xenograft cells were isolated by enzymatic dissociation (2.5 mg/ml pronase, 1 mg/ml collagenase and 0.2 mg/ml DNAse) and immediately fixed with 4% buffered PFA (pH 7.4, 1 hr). and transferred to 70% ethanol (−20° C., overnight). Cells were resuspended in 1% BSA/PBS and permeabilised with 0.2% Triton X-100 (30 min, RT), blocked in 10% BSA/PBS (30 min, RT) and resuspended in primary antibody for 2 hr (37° C.). The primary antibody was either anti-EF5 mouse monoclonal (ELK 3.51) conjugated with CY5 or Alexa-488 diluted to 100 μg/ml in blocking buffer (according to instruction in Koch C., 2008, Rad Res, 169 (6): 677-688) or Hypoxyprobe-1 (Chemicon Int) mouse monoclonal anti-pimonidazole antibody (clone 4.3.11.3) conjugated with FITC and diluted 1:100 in blocking buffer. Cells were washed in blocking buffer and resuspended in blocking buffer containing 100 μg/ml RNAase and analysed using a Becton Dickinson FACscan flow cytometer (MA, USA) with Cell Quest software using forward scatter and side scatter to gate out cell debris and tumour cells. Integrated fluorescence measurements were recorded for 30,000 single non-debris events.\n(§4) In vitro: 3-4 drops of cell suspension prepared for flow cytometry was added to a cytospin chamber containing a poly-I-lysine coated slide and spun for 5 minutes at low acceleration (500 rpm) in a cytospinner. Cells were left to dry and mounted with coverslips using Prolong Gold antifade (Invitrogen) and sealed with nail varnish."}, "[2]": {"system": "HCT-116 cells stably expressing E. coli NfsA", "experiment": "Flow cytometry / fluorescent imaging of EF5 retention in vitro", "format": "cell-based, human", "description": "as §1, §2, §3, §4"}, "[3]": {"target": "T1, E. coli NfsA (Escherichia coli, UniProt P17117)", "T1 construct": "his6; made in house", "experiment": "Purified enzyme kinetics (NADPH oxidation at 340 nm)", "format": "biochemical", "conditions": "0.25 mM NADPH, varying EF5", "description": "FIG. 12 illustrates the purified enzyme kinetic data for eleven E. coli nitroreductases with EF5 as a substrate. Reactions contained 10 mM Tris-Cl (pH 7.0), 4% DMSO, 0.25 mM NADPH and varying EF5 concentrations. Reactions were initiated by addition of 10 μl enzyme and changes in absorbance were measured for 15 s at 340 nm on a spectrophotometer to monitor NTR-catalysed NADPH oxidation.\nFor EF5 and other 2-NI bio-imaging agents, steady-state enzyme kinetics with purified NTRs were assessed spectrophotometrically at 340 nm to monitor NTR catalyzed NADPH oxidation. The molar extinction co-efficient of NADPH (6,220 M^−1 cm^−1) was used for the calculation of enzyme activity. For PR-104A, reduction was measured directly at 400 nm (ε=6,000 M^−1 cm^−1); and for CB1954, reduction was measured directly at 420 nm (ε=1,200 M^−1 cm^−1). Reactions were performed in 100 μl in UVettes (Eppendorf), using the 2 mm light path length. Reactions contained 10 mM Tris-Cl (pH 7.0), 4% DMSO, 0.25 mM NADPH and varying EF5 or PR-104A concentrations. Reactions were initiated by addition of 10 μl enzyme and changes in absorbance were measured for 15 s (during linearity). For calculation of Km and kcat, substrate concentrations were varied from ˜0.2×Km to 5×Km. Non-linear regression analysis and Michaelis-Menten curve fitting was performed using Sigmaplot 10.0 (Systat Software Inc.)."}, "[4]": {"conditions": "cited from earlier work"}, "[5]": {"system": "nitroreductase NfsA-expressing HCT116 'activator' cells", "experiment": "MCL (multicellular layer) bystander experiment, NfsA-dependent activation", "format": "cell-based, human", "description": "Displacement of the Target cell survival curve to the left (T to Tc) is indicative of the presence of a cytotoxic metabolite(s) able to diffusible out of the sensitive activator (A) cell population. The prodrug concentrations for 10% survival (C10) of target cells (wild-type cells) grown without activators (T), targets in co-culture (TC) and activators (nfsA-expressing cells) in co-culture (AC) were determined by interpolation. BEE-Bystander effect efficiency calculates the drugs bystander effect: ((Log C10T−Log C10TC)/(Log C10T−Log C10AC)).\nThe prodrug concentrations for 10% survival (C10) of target cells (wild-type cells) grown without activators (T), and targets in co-culture (TC) and activators (NTR-expressing cells) in co-culture (AC) can be determined. The bystander effect of a test prodrug is measured by the bystander effect efficiency which can be calculated using the algorithm ((Log C10T−Log C10TC)/(Log C10T−Log C10AC)).\nMillicell-CM membrane inserts (Millipore) were coated in calf-skin collagen type III (Sigma-Aldrich) to facilitate cell attachment. […] After exposure, inserts were disaggregated (0.07% trypsin, 10 min, 37° C., followed by 100 μg/ml DNAase I (Sigma-Aldrich). Cells were counted, resuspended and plated in P60 dishes to determine clonogenic survival. To discriminate clonogenic activator (NTR+) from target (NTR−) colonies cells were plated in non-selective medium (total cells) and medium containing 1 μM puromycin (activator cells). Colonies were grown in a 37° C. 5% CO2 incubator for 10 days before staining with methylene blue (2 g/liter in 50% v/v aqueous ethanol). Colonies containing >50 cells were counted as clonogenic survivors. Surviving fractions for each population was calculated as the plating efficiency for drug-treated MCLs/untreated controls. The drug concentrations for 10% survival (C10) of target cells grown without activators (T), targets in co-culture (Tc) and activators in co-culture (Ac) was determined by interpolation."}, "[6]": {"conditions": "increasing EF5 concentrations, oxic, monolayer"}}}
{"smiles": "O=C(Cn1ccnc1[N+](=O)[O-])NCC(F)(F)C(F)(F)F", "note": "[EF5, 2-(2-nitro-1H-imidazol-1-yl)-N-(2,2,3,3,3-pentafluoropropyl)acetamide]", "values": [{"measurement": "cellular retention of EF5 (in words)", "setting": "[1]; 20 μM EF5, 2 h, aerobic, compared to parental cells", "result": "minor EF5 retention"}, {"measurement": "activity towards EF5, dose-response (in words)", "setting": "[1]; [6]", "result": "minimal activity"}, {"measurement": "cellular retention of EF5 (in words)", "setting": "[2]; 20 μM EF5, 2 h, aerobic", "result": "greatest retention"}, {"measurement": "retention of EF5, dose-response (in words)", "setting": "[2]; [6]", "result": "clearly superior"}, {"measurement": "enzyme kinetics with EF5 as substrate, rank among 11 E. coli NTRs (in words)", "setting": "[3]", "result": "highest kcat and kcat/Km ratio"}, {"measurement": "tolerability (in words)", "setting": "[4]; EF5 21 mg/kg, injected", "result": "without any toxicities"}, {"measurement": "concentration-time achieved in human plasma", "setting": "[4]; cold EF5 9 mg/kg", "result": 0.89, "unit": "mM-hr"}, {"measurement": "bystander property (in words)", "setting": "[5]; MCL of NTR-expressing and parental HCT116 cells", "result": "zero bystander property"}, {"measurement": "concentration-time giving 90% loss of viability for nfsA expressing HCT116 cells", "setting": "[5]; cold (radiolabel-free) EF5", "result": 0.7, "unit": "mM-hr"}, {"measurement": "estimated bystander effect efficiency (BEE)", "setting": "[5]; hyperoxic (95% O2) MCLs, at concentrations achievable in α-MEM+10% FBS, activator fraction differs per experiment", "result": 0, "unit": "%"}]}
